Test results reported in patent publication US20070059321A1, “Methods of reducing minimal inhibitory concentration of antibiotics and compositions resulting therefrom” (The Hong Kong Polytechnic University, priority 2005, published 2007).
Read-outs that look alike come from different tables or passages of the source.

Legend:
Assay type in all cases: cell-based
[1] = system: MRSA5 (methicillin-resistant Staphylococcus aureus clinical isolate); experiment: Broth microdilution MIC (NCCLS 2000), strain MRSA5; settings: 18 h
Description: (§1) Antimicrobial susceptibility testing was performed by broth assay followed standard laboratory procedures (the National Committee for Clinical Laboratory Standards (NCCLS) protocol 2000). The MIC in this assay was defined as the lowest concentration of the antibiotic under test that inhibited the visible growth of the microorganism under study.
(§2) There were eight strains of Staphylococcus aureus tested. All were from clinical isolates as they represent strains actually present in the community and so of clinical relevance. Three strains were sensitive to methicillin (MSSA), and five strains were resistant to methicillin (MRSA).
(§3) The MIC for each of the eight strains was determined for penicillin G and for vancomycin using dilutions made from the stock preparations purchased (both from Sigma). […]
(§4) The antimicrobial susceptibility test was performed in a 96-well microtitre plate and following standard National Committee for Clinical Laboratory Standards (NCCLS) protocol (NCCLS, 2000). […] Minimal inhibitory concentration (MIC) was determined by the microdilution method in Mueller-Hinton broth (Oxoid, Hampshire, UK), according to the standards of the NCCLS (2000). […]
(§5) Each bacterial strain was plated overnight on Mueller-Hinton agar and then transferred to a broth 3 hours before the assay was performed. […] Microplates were examined 18 hours later and determined for MIC. […]

[2] = system: MRSA1 (methicillin-resistant Staphylococcus aureus clinical isolate); experiment: Broth microdilution MIC (NCCLS 2000), strain MRSA1; settings: 18 h
Description: as §1, §2, §3, §4, §5

[3] = system: MRSA2 (methicillin-resistant Staphylococcus aureus clinical isolate); experiment: Broth microdilution MIC (NCCLS 2000), strain MRSA2; settings: 18 h
Description: as §1, §2, §3, §4, §5

[4] = system: MRSA4 (methicillin-resistant Staphylococcus aureus clinical isolate); experiment: Broth microdilution MIC (NCCLS 2000), strain MRSA4; settings: 18 h
Description: as §1, §2, §3, §4, §5

[5] = system: MSSA2 (methicillin-sensitive Staphylococcus aureus clinical isolate); experiment: Broth microdilution MIC (NCCLS 2000), strain MSSA2; settings: 18 h
Description: as §1, §2, §3, §4, §5

[6] = system: MSSA1 (methicillin-sensitive Staphylococcus aureus clinical isolate); experiment: Broth microdilution MIC (NCCLS 2000), strain MSSA1; settings: 18 h
Description: as §1, §2, §3, §4, §5

[7] = system: MRSA3 (methicillin-resistant Staphylococcus aureus clinical isolate); experiment: Broth microdilution MIC (NCCLS 2000), strain MRSA3; settings: 18 h
Description: as §1, §2, §3, §4, §5

[8] = system: MSSA3 (methicillin-sensitive Staphylococcus aureus clinical isolate); experiment: Broth microdilution MIC (NCCLS 2000), strain MSSA3; settings: 18 h
Description: as §1, §2, §3, §4, §5

[9] = system: eight strains of Staphylococcus aureus (MSSA and MRSA clinical isolates); experiment: Broth microdilution MIC (NCCLS 2000), summary over all tested strains; settings: read-out: MIC concentrations of the different strains
Description: as §1, §2, §3, §4, §5

Row | MIC ([1]; strain MRSA5, extract where present 1% w/v final, 37° C., Mueller-Hinton broth, read-out: MIC) | MIC ([2]; strain MRSA1, extract where present 1% w/v final, 37° C., Mueller-Hinton broth, read-out: MIC) | MIC ([3]; strain MRSA2, extract where present 1% w/v final, 37° C., Mueller-Hinton broth, read-out: MIC) | MIC ([4]; strain MRSA4, extract where present 1% w/v final, 37° C., Mueller-Hinton broth, read-out: MIC) | MIC ([5]; strain MSSA2, extract where present 1% w/v final, 37° C., Mueller-Hinton broth, read-out: MIC) | MIC ([6]; strain MSSA1, extract where present 1% w/v final, 37° C., Mueller-Hinton broth, read-out: MIC) | MIC ([7]; strain MRSA3, extract where present 1% w/v final, 37° C., Mueller-Hinton broth, read-out: MIC) | MIC ([8]; strain MSSA3, extract where present 1% w/v final, 37° C., Mueller-Hinton broth, read-out: MIC) | MIC ([9]; antibiotic alone, range over the eight MSSA and MRSA strains) | SMILES | MIC [1] | MIC [2] | MIC [3] | MIC [4] | MIC [5] | MIC [6] | MIC [7] | MIC [8] | MIC [9]
1 | 512 µg/mL | 512 µg/mL | 256 µg/mL | 256 µg/mL | 32 µg/mL | 64 µg/mL | 1020 µg/mL | 8 µg/mL | 8 to 1020 µg/mL | CC1(C)S[C@@H]2[C@H](NC(=O)Cc3ccccc3)C(=O)N2[C@H]1C(=O)O [Pen, penicillin G] |  |  |  |  |  |  |  |  | 
2 |  |  |  |  |  |  |  |  |  | CN[C@H](CC(C)C)C(=O)N[C@H]1C(=O)N[C@@H](CC(N)=O)C(=O)N[C@H]2C(=O)N[C@H]3C(=O)N[C@H](C(=O)N[C@H](C(=O)O)c4cc(O)cc(O)c4-c4cc3ccc4O)[C@H](O)c3ccc(c(Cl)c3)Oc3cc2cc(c3O[C@@H]2O[C@H](CO)[C@@H](O)[C@H](O)[C@H]2O[C@H]2C[C@](C)(N)[C@H](O)[C@H](C)O2)Oc2ccc(cc2Cl)[C@H]1O [Van, vancomycin] | 0.5 µg/mL | 0.5 µg/mL | 1 µg/mL | 0.5 µg/mL | 0.5 µg/mL | 0.5 µg/mL | 1 µg/mL | 0.5 µg/mL | 0.5 to 1 µg/mL
